# Assay results published in patent US20230265151A1, “GIP/GLP1 CO-AGONIST COMPOUNDS” (priority 2020, published 2023).
# Read-outs that look alike come from different tables or passages of the source. *1 amine or outer side, *2 acyl side, *3 side chain or, on linkers, in order; H or OH if unused. Where a SMILES comes first, the peptide text is derived from it. Side-chain parts run from the residue outwards. [ ]: non-standard residue; d: D form. The star is where a group is joined. αMePhe(2-F) = C[C@](N)(Cc1ccccc1F)C(=O)O; γGlu = O=C(O)[C@H](CCC(=O)[*:2])N[*:1]; C14 diacid = O=C(O)CCCCCCCCCCCCC(=O)*; εLys = N[C@@H](CCCCN[*:1])C(=O)[*:2]; αMeY = C[C@](N)(Cc1ccc(O)cc1)C(=O)O; 4Pal = N[C@@H](Cc1ccncc1)C(=O)O; αMeL = CC(C)C[C@](C)(N)C(=O)O; Orn = NCCC[C@H](N)C(=O)O; AEEA = NCCOCCOCC(=O)O; Aib = CC(C)(N)C(=O)O
# Assays:
# Format in all cases: cell-based
# [1] = target: T1, hGIPR (Homo sapiens, UniProt P48546); experiment: Functional cAMP formation (HTRF) in HEK-293 clonal cells expressing hGIPR, 0.1% bovine casein, without or with 1.0% human serum albumin; settings: for EC50: geometric mean, read-out: hGIPR EC50, nM (SEM, n); for Emax: read-out: hGIPR Emax, % ± SEM
# T1 construct: expressed in transfected cells
# T1 sequence (P48546 22-466): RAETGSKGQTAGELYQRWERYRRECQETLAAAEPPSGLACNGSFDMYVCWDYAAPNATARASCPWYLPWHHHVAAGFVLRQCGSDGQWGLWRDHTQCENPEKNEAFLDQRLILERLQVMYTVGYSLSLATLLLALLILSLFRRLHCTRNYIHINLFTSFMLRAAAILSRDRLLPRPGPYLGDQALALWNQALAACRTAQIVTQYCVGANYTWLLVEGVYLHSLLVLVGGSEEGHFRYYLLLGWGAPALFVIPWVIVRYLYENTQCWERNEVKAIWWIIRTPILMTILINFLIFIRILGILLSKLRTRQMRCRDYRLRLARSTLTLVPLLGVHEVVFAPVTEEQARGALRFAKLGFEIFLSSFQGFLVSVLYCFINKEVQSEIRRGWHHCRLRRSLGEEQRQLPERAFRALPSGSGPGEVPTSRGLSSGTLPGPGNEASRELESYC
# How it was run: (§1)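 Cells were stimulated with peptide for 30 min at 37° C, then lysed in buffer carrying cAMP-d2 and anti-cAMP Eu3+-cryptate for a competitive HTRF read after at least 60 min at room temperature. The 665/620 nm ratio was converted to nM cAMP against a standard curve.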
# [2] = target: T2, hGCGR (Homo sapiens, UniProt P47871); experiment: Functional cAMP formation (HTRF) in HEK-293 clonal cells expressing hGCGR, 0.1% bovine casein, without or with 1.0% human serum albumin; settings: geometric mean, read-out: hGCGR EC50, nM (SEM, n)
# T2 construct: expressed in transfected cells
# T2 sequence (P47871 26-477): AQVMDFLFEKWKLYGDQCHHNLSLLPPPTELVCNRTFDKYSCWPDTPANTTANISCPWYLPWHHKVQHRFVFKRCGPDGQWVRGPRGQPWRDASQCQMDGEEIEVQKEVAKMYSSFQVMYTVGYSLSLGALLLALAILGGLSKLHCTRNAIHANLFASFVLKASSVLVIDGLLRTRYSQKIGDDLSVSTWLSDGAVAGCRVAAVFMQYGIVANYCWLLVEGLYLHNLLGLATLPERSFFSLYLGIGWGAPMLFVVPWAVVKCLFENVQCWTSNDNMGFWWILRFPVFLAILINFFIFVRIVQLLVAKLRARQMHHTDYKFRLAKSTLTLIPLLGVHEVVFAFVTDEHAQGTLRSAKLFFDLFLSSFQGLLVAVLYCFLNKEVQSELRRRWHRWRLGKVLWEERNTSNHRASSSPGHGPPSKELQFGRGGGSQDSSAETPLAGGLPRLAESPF
# How it was run: as §1
# [3] = target: hGLP-1R (Homo sapiens, UniProt P43220); experiment: Functional cAMP formation (HTRF) in HEK-293 clonal cells expressing hGLP-1R, 0.1% bovine casein, without or with 1.0% human serum albumin; parameters: expressed in transfected cells; settings: for EC50: geometric mean, read-out: hGLP-1R EC50, nM (SEM, n); for Emax: read-out: hGLP-1R Emax, % ± SEM
# Chain of hGLP-1R (P43220 24-463): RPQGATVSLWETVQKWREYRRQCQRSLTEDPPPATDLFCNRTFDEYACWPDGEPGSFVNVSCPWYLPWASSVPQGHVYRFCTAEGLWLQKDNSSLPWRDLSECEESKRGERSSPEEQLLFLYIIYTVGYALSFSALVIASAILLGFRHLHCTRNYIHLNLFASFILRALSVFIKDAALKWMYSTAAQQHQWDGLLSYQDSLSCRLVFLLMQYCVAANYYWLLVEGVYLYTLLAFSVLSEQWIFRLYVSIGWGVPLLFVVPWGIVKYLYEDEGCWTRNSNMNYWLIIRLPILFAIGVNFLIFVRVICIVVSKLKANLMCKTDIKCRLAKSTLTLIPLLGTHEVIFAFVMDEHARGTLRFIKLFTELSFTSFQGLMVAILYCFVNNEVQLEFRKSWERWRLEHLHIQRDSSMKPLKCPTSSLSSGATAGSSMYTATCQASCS
# How it was run: as §1
# [4] = 0.1% bovine casein and 1.0% human serum albumin, 37° C.
# [5] = HEK293, 0.1% bovine casein and 1.0% human serum albumin, 37° C., percent of maximal response to GIP(1-42)NH2
# [6] = HEK293, percent of maximal response to GIP(1-42)NH2, 37° C., 0.1% bovine casein, arithmetic mean
# [7] = cAMP, incubated at 37° C., 0.1% bovine casein (no human serum albumin)
# [8] = HEK293, percent of maximal response to GLP-1(7-36)NH2, 37° C., 0.1% bovine casein, arithmetic mean
Compound,"EC50 [1, 4] [nM]","Emax [1, 5] [%]","Emax [1, 6] [%]","EC50 [1, 7] [nM]","EC50 [2, 4] [nM]","EC50 [2, 7] [nM]","EC50 [3, 4] [nM]","Emax ([3]; HEK293, 0.1% bovine casein and 1.0% human serum albumin, 37° C., percent of maximal response to GLP-1(7-36)NH2) [%]","Emax [3, 8] [%]","EC50 [3, 7] [nM]"
CC[C@H](C)[C@H](NC(=O)[C@H](CC(C)C)NC(=O)[C@](C)(Cc1ccc(O)cc1)NC(=O)[C@@H](CCC(=O)O)NC(=O)[C@@H](NC(=O)[C@H](Cc1ccccc1)NC(=O)[C@H](CCC(=O)O)NC(=O)C(C)(C)NC(=O)[C@H](CCC(N)=O)NC(=O)[C@H](C)NC(=O)[C@H](CCCCNC(=O)COCCOCCNC(=O)COCCOCCNC(=O)CC[C@H](NC(=O)CCCCCCCCCCCCC(=O)O)C(=O)O)NC(=O)[C@H](CCCN)NC(=O)[C@H](CC(=O)O)NC(=O)[C@H](CC(C)C)NC(=O)[C@](C)(CC(C)C)NC(=O)[C@@H](NC(=O)[C@H](CO)NC(=O)[C@H](Cc1ccncc1)NC(=O)[C@H](CC(=O)O)NC(=O)[C@H](CO)NC(=O)[C@@H](NC(=O)[C@](C)(Cc1ccccc1F)NC(=O)[C@@H](NC(=O)CNC(=O)[C@H](CCC(=O)O)NC(=O)C(C)(C)NC(=O)[C@@H](N)Cc1ccc(O)cc1)[C@@H](C)O)[C@@H](C)O)[C@@H](C)CC)[C@@H](C)CC)C(=O)N[C@@H](CCC(=O)O)C(=O)NCC(=O)NCC(=O)N[C@@H](CCCCNC(=O)COCCOCCNC(=O)COCCOCCNC(=O)CC[C@H](NC(=O)CCCCCCCCCCCCC(=O)O)C(=O)O)C(N)=O [Example 184] (H-Y[Aib]EGT[αMePhe(2-F)]TSD[4Pal]SI[αMeL]LD[Orn]K([AEEA-AEEA-γGlu-C14 diacid])AQ[Aib]EFI[dE][αMeY]LIEGGK([AEEA-AEEA-γGlu-C14 diacid])-NH2),2.46,81.2,95.2 ± 1.13,0.0354,> 9950,> 9950,119,87.8,96.8 ± 12,1.82
CC[C@H](C)[C@H](NC(=O)[C@H](CC(C)C)NC(=O)[C@](C)(Cc1ccc(O)cc1)NC(=O)[C@@H](CCC(=O)O)NC(=O)[C@@H](NC(=O)[C@H](Cc1ccccc1)NC(=O)[C@H](CCC(=O)O)NC(=O)C(C)(C)NC(=O)[C@H](CCC(N)=O)NC(=O)[C@H](C)NC(=O)[C@H](CCCCNC(=O)COCCOCCNC(=O)COCCOCCNC(=O)[C@@H](N)CCCCNC(=O)CCCCCCCCCCCCC(=O)O)NC(=O)[C@H](CCCN)NC(=O)[C@H](CC(=O)O)NC(=O)[C@H](CC(C)C)NC(=O)[C@](C)(CC(C)C)NC(=O)[C@@H](NC(=O)[C@H](CO)NC(=O)[C@H](Cc1ccncc1)NC(=O)[C@H](CC(=O)O)NC(=O)[C@H](CO)NC(=O)[C@@H](NC(=O)[C@](C)(Cc1ccccc1F)NC(=O)[C@@H](NC(=O)CNC(=O)[C@H](CCC(=O)O)NC(=O)C(C)(C)NC(=O)[C@@H](N)Cc1ccc(O)cc1)[C@@H](C)O)[C@@H](C)O)[C@@H](C)CC)[C@@H](C)CC)C(=O)N[C@@H](CCC(=O)O)C(=O)NCC(=O)NCC(=O)N[C@@H](CCCCNC(=O)COCCOCCNC(=O)COCCOCCNC(=O)[C@@H](N)CCCCNC(=O)CCCCCCCCCCCCC(=O)O)C(N)=O [Example 185] (H-Y[Aib]EGT[αMePhe(2-F)]TSD[4Pal]SI[αMeL]LD[Orn]K([AEEA-AEEA-εLys-C14 diacid])AQ[Aib]EFI[dE][αMeY]LIEGGK([AEEA-AEEA-εLys-C14 diacid])-NH2; N-terminus assumed),0.335,86.2,94.5 ± 0.288,0.018,> 9950,> 9950,11.3,,95.1 ± 1.74,0.419
